In brackets after ≈: the same amount, converted by molar mass.
Legend:
[1] = molecular target: T1, Adenosine receptor A2b (Homo sapiens) (UniProt P29275); experiment: Agonist activity at human A2B receptor expressed in HEK293 cells at 10 uM after 10 mins by HTRF assay relative to control; type: cell-based
T1 sequence (whole entry): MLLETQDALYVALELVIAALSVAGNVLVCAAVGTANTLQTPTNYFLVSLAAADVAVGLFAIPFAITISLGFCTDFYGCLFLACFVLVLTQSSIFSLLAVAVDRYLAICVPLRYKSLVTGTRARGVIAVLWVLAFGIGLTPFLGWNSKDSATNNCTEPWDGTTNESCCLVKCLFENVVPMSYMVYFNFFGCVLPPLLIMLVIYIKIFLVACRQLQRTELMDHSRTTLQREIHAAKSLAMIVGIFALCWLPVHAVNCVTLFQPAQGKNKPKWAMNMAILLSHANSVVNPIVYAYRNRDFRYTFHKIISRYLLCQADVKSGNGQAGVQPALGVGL

Thyrotropin receptor = Thyrotropin receptor (Homo sapiens, UniProt P16473); experiment: Antagonist activity at human thyroid stimulating hormone receptor expressed in rat HTC133 cells assessed as reduction in agonist-induced cAMP production preincubated for 20 mins followed by agonist solution addition and measured after 60 mins by cell based TR-FRET assay; type: functional
[2] = molecular target: Voltage-gated inwardly rectifying potassium channel KCNH2 (Homo sapiens, UniProt Q12809); experiment: Inhibition of human ERG expressed in HEK293 cells at holding potential -80 mV by whole-cell voltage-clamp method; type: cell-based
[3] = Aqueous solubility of the compound at pH 6.5 incubated for 24 hrs under shaking condition by HPLC-MS/MS analysis; type: physicochemical; conditions: buffer
[4] = Chemical stability of the compound at pH 1 to 10 measured after 1 to 24 hrs by HPLC-UV method; type: physicochemical; conditions: buffer
[5] = molecular target: T2, Alpha-2A adrenergic receptor (Homo sapiens) (UniProt P08913); experiment: Antagonist activity at human alpha2A adrenergic receptor expressed in Chem-1 cells at 10 uM by fluorimetric method relative to control; type: cell-based; set-up: scale not given: the % may be the effect or the level left
T2 sequence (whole entry): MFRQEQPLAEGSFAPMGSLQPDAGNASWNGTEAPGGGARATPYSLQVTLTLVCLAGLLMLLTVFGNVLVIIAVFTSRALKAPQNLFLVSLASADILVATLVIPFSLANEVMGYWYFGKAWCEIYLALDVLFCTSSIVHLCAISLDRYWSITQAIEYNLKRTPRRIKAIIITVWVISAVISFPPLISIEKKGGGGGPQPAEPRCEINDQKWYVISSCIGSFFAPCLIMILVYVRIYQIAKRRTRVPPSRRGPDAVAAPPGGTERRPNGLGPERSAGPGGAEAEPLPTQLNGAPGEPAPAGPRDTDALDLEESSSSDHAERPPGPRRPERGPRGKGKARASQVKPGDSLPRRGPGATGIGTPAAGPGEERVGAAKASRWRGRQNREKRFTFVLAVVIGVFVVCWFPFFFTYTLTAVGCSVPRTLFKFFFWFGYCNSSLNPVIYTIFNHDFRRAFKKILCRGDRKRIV

[6] = molecular target: D(1A) dopamine receptor (Homo sapiens) (UniProt P21728); experiment: Agonist activity at human D1 receptor expressed in CHO-K1 cells at 10 uM after 30 mins HTRF assay relative to control; type: cell-based
[7] = molecular target: Histamine H2 receptor (Homo sapiens) (UniProt P25021); experiment: Agonist activity at human histamine H2 receptor expressed in CHO-K1 cells at 10 uM after 30 mins by HTRF assay relative to control; type: cell-based
[8] = molecular target: Histamine H2 receptor (Homo sapiens) (UniProt P25021); experiment: Antagonist activity at human histamine H2 receptor expressed in CHO-K1 cells at 10 uM after 30 mins by HTRF assay relative to control; type: cell-based; set-up: scale not given: the % may be the effect or the level left
[9] = molecular target: Histamine H3 receptor (Homo sapiens) (UniProt Q9Y5N1); experiment: Agonist activity at human histamine H3 receptor expressed in CHO-K1 cells at 10 uM after 10 mins by HTRF assay relative to control; type: cell-based
[10] = molecular target: Motilin receptor (Homo sapiens) (UniProt O43193); experiment: Agonist activity at human Motilin receptor expressed in CHO-K1 cells at 10 uM by fluorimetric method relative to control; type: cell-based
[11] = molecular target: T3, Muscarinic acetylcholine receptor M1 (Homo sapiens) (UniProt P11229); experiment: Agonist activity at human muscarinic M1 receptor expressed in CHO-K1 cells at 10 uM by fluorimetric method relative to control; type: cell-based
T3 sequence (whole entry): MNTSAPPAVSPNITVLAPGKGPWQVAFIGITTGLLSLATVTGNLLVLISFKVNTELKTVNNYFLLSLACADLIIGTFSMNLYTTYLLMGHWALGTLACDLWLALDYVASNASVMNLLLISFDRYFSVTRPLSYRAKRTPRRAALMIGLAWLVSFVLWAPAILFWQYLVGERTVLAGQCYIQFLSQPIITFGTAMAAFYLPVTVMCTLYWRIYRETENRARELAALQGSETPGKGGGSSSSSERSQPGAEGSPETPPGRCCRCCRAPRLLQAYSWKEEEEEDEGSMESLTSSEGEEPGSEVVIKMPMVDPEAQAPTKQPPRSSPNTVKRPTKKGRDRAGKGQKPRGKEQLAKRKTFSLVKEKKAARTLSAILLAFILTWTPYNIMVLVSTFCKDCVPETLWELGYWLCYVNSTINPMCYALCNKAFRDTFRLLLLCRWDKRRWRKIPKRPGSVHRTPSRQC

[12] = molecular target: Muscarinic acetylcholine receptor M4 (Homo sapiens) (UniProt P08173); experiment: Agonist activity at human muscarinic M4 receptor expressed in CHO-K1 cells at 10 uM after 10 mins by HTRF method relative to control; type: cell-based
[13] = molecular target: Kappa-type opioid receptor (Homo sapiens) (UniProt P41145); experiment: Agonist activity at human kappa opioid receptor at 10 uM by Spectrophotometric method relative to control
[14] = molecular target: T4, 5-hydroxytryptamine receptor 1A (Homo sapiens) (UniProt P08908); experiment: Antagonist activity at human 5-HT1A receptor expressed in mouse BA/F3 cells at 10 uM by fluorimetric method relative to control; type: cell-based; set-up: scale not given: the % may be the effect or the level left
T4 sequence (whole entry): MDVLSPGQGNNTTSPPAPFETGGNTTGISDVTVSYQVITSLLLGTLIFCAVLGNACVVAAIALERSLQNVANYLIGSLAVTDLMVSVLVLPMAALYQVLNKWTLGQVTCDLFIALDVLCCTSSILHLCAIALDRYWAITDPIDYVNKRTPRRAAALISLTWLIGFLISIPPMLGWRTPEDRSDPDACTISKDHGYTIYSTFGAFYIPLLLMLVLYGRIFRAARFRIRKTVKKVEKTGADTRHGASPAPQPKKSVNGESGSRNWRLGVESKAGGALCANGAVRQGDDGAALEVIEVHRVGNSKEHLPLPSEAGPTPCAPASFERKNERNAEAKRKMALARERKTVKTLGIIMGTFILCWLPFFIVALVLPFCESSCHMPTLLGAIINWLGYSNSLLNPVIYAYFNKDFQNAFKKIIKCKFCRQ

[15] = molecular target: 5-hydroxytryptamine receptor 2B (Homo sapiens) (UniProt P41595); experiment: Antagonist activity at human 5-HT2B receptor expressed in CHO-K1 cells at 10 uM after 30 mins by HTRF assay relative to control; type: cell-based; set-up: scale not given: the % may be the effect or the level left
[16] = molecular target: Somatostatin receptor type 4 (Homo sapiens) (UniProt P31391); experiment: Antagonist activity at human sst4 expressed in CHO-K1 cells at 10 uM after 10 mins by HTRF assay relative to control; type: cell-based; set-up: scale not given: the % may be the effect or the level left
Chain of Somatostatin receptor type 4 (Homo sapiens) (P31391 whole entry): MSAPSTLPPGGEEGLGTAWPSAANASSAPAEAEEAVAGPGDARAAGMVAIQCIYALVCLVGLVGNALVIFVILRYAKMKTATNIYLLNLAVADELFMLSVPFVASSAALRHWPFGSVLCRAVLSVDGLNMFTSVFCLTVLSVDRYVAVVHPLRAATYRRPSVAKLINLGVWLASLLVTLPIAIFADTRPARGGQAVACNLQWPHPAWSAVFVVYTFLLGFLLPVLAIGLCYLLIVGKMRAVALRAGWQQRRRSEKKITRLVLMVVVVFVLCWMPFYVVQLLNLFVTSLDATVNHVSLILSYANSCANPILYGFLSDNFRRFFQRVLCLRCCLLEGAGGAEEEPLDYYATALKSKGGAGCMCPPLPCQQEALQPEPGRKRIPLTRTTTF

Chain of Histamine H2 receptor (Homo sapiens) (P25021 whole entry): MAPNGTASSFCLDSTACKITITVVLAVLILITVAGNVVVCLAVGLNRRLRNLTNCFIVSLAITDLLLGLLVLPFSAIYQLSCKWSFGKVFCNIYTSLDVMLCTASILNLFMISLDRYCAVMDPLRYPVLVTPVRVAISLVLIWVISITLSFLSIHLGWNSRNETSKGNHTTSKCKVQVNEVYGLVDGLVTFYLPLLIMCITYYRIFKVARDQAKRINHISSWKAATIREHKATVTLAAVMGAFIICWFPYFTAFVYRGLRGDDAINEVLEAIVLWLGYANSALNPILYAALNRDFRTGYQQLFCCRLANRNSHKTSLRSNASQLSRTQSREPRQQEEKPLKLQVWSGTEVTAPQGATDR
Chain of D(1A) dopamine receptor (Homo sapiens) (P21728 whole entry): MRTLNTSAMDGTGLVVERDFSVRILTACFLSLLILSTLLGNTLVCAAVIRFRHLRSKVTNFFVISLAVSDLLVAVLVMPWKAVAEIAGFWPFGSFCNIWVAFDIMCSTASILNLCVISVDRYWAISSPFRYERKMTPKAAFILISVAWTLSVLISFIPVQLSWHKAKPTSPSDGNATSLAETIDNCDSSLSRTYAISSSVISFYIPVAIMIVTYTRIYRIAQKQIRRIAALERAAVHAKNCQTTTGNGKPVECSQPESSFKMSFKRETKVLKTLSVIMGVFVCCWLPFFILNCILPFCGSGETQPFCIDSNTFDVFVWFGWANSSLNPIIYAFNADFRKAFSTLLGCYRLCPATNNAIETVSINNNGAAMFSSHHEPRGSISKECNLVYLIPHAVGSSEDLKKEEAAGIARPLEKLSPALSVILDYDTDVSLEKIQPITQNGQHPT
Chain of 5-hydroxytryptamine receptor 2B (Homo sapiens) (P41595 whole entry): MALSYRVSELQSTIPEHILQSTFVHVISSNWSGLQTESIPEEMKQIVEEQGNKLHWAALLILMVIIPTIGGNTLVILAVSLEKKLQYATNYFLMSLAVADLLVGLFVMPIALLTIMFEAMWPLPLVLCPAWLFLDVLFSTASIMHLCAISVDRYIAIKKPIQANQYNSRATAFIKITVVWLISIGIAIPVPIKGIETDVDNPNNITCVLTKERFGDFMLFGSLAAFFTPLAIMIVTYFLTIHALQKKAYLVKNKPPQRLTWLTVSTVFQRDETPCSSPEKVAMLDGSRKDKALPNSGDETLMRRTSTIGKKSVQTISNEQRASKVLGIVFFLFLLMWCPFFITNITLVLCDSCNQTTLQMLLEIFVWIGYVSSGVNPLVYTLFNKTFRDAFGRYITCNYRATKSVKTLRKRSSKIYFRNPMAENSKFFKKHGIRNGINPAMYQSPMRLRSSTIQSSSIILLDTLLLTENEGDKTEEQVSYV
Chain of Muscarinic acetylcholine receptor M4 (Homo sapiens) (P08173 whole entry): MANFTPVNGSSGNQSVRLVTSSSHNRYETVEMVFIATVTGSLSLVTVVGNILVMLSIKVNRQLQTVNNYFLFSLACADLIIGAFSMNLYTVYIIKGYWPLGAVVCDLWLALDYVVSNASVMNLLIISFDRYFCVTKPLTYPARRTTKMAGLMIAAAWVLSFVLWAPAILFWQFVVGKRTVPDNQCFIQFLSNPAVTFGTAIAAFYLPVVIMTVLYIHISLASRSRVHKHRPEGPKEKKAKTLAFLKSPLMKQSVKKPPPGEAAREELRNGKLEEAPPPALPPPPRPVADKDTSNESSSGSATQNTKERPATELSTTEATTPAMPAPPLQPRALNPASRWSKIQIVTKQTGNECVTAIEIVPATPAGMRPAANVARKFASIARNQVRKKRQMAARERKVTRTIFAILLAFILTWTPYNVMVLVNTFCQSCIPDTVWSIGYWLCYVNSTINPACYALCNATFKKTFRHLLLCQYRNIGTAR
Chain of Thyrotropin receptor (P16473 whole entry): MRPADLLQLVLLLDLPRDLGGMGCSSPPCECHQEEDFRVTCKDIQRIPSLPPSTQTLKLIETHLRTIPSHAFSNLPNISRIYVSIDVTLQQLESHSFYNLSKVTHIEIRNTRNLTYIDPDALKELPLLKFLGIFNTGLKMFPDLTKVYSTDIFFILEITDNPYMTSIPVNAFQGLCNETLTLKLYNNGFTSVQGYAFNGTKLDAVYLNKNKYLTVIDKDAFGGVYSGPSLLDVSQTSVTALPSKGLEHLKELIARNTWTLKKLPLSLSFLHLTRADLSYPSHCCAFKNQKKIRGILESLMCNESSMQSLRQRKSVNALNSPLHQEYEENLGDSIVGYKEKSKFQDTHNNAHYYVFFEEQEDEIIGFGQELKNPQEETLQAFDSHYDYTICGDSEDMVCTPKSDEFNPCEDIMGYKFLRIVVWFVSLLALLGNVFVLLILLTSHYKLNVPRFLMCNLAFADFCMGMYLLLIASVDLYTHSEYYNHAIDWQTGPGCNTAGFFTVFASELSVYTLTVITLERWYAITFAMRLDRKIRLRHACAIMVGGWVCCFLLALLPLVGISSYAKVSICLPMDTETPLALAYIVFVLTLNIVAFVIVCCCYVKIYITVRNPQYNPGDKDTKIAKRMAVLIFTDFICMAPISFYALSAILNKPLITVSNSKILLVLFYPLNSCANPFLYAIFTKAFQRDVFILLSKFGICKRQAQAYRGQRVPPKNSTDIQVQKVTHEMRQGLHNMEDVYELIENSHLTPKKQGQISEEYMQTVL
Chain of Kappa-type opioid receptor (Homo sapiens) (P41145 whole entry): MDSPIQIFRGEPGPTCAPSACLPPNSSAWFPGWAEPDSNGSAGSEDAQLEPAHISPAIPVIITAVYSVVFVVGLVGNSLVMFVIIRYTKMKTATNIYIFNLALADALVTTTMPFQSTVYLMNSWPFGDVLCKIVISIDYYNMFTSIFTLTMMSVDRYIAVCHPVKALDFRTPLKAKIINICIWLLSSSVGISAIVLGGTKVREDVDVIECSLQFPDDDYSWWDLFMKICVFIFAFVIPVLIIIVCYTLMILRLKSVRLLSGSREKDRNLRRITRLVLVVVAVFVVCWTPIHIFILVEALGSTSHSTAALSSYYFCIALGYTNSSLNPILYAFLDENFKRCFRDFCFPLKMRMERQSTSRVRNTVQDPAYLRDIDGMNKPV
Chain of Histamine H3 receptor (Homo sapiens) (Q9Y5N1 whole entry): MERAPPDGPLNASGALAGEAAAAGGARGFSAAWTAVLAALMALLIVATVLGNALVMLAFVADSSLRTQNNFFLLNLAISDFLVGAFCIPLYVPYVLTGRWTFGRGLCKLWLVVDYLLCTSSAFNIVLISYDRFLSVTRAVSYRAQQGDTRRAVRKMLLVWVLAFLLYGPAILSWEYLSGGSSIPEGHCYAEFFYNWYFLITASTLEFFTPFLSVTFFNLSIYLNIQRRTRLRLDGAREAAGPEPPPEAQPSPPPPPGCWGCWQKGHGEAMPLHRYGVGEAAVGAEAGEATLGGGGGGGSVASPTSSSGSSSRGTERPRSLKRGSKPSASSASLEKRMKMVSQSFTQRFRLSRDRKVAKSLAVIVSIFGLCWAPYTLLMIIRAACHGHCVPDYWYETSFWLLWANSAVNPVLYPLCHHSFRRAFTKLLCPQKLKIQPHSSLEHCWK
Chain of Motilin receptor (Homo sapiens) (O43193 whole entry): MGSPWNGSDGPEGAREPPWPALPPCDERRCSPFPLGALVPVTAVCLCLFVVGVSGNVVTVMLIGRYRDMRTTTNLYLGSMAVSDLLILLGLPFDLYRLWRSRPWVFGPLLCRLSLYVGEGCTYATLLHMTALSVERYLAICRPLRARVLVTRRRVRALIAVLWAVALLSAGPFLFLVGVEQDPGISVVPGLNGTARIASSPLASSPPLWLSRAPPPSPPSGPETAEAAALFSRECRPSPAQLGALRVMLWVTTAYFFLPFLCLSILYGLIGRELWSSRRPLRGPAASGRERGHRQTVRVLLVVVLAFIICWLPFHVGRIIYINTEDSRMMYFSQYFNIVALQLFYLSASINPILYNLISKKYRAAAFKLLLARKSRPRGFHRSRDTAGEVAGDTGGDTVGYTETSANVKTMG

Row | Structure (SMILES) | Activity [1] [%] | IC50 (Thyrotropin receptor) [µM] | IC50 [2] [µM] | solubility at 24 h [3] [µg/mL] | Stability [4] | Activity [5] [%] | Activity [6] [%] | Activity [7] [%] | Activity [8] [%] | Activity [9] [%] | Activity [10] [%] | Activity [11] [%] | Activity [12] [%] | Activity [13] [%] | Activity [14] [%] | Activity [15] [%] | Activity [16] [%]
1 | O=C(Nc1ccc(Oc2ccc(F)cc2)cc1)N1CCc2ncccc2[C@@H]1c1ccc(Cl)cc1 | < 70 | 2.3 | 3 | 3.5 (≈ 7.38 µM) | Stable | < 70 | < 70 | < 70 | < 70 | < 70 | < 70 | < 70 | < 70 | < 70 | < 70 | < 70 | < 70
2 | O=C(Nc1cnc(Oc2ccc(F)cc2)nc1)N1CCc2ncccc2[C@@H]1c1ccc(F)cc1 [BAY-899] | < 70 | 24 | 10.6 | 39 (≈ 84.9 µM) | Stable | < 70 | < 70 | < 70 | < 70 | < 70 | < 70 | < 70 | < 70 | < 70 | < 70 | < 70 | < 70

From ChEMBL document CHEMBL4321836, “Discovery of BAY-298 and BAY-899: Tetrahydro-1,6-naphthyridine-Based, Potent, and Selective Antagonists of the Luteinizing Hormone Receptor Which Reduce Sex Hormone Levels in Vivo” (J Med Chem, 2019)
